Measured values: patent US6399615B1, “Farnesyl protein transferase inhibitors” (Schering Corporation, priority 1997, dated 2002)

Experiments:
COS Cell = COS Cell IC50 (Cell-Based Assay); conditions: COS cells
Experimental: (§1) FPT IC50 (inhibition of farnesyl protein transferase, in vitro enzyme assay) and COS Cell IC50 (Cell-Based Assay) were determined following the assay procedures described in WO 95/10516, published Apr. 20, 1995. GGPT IC50 (inhibition of geranylgeranyl protein transferase, in vitro enzyme assay), Cell Mat Assay, and anti-tumor activity (in vivo anti-tumor studies) could be determined by the assay procedures described in WO 95/10516. The disclosure of WO 95/10516 is incorporated herein by reference thereto.

[1] = molecular target: farnesyl protein transferase (Homo sapiens, UniProt P49354+P49356); assay: FPT IC50 (inhibition of farnesyl protein transferase, in vitro enzyme assay); type: biochemical
Experimental: as §1

Human tumor cells = assay: Soft Agar Assay (anchorage-independent growth); type: cell-based; conditions: colony growth in soft agar
Experimental: Anchorage-independent growth is a characteristic of tumorigenic cell lines. Human tumor cells are suspended in growth medium containing 0.3% agarose and an indicated concentration of a farnesyl transferase inhibitor. The solution is overlayed onto growth medium solidified with 0.6% agarose containing the same concentration of farnesyl transferase inhibitor as the top layer. After the top layer is solidified, plates are incubated for 10-16 days at 37° C. under 5% CO2 to allow colony outgrowth. After incubation, the colonies are stained by overlaying the agar with a solution of MTT (3-[4,5-dimethyl-thiazol-2-yl]-2,5-diphenyltetrazolium bromide, Thiazolyl blue) (1 mg/mL in PBS). Colonies can be counted and the IC50's can be determined.

Row | SMILES | IC50 (COS Cell) | IC50 [1] | melting point | IC50 (Human tumor cells)
1 | NC(=O)[C@H]1C[C@@H]1C(=O)N1CCC([C@H]2c3ncc(Br)cc3CCc3cc(Cl)cc(Br)c32)CC1 [30 (compound 55.0)] | 50 nM | 6.2 nM |  | 
2 | O=C(Cc1ccccc1C(=O)N1CCC([C@H]2c3ncc(Br)cc3CCc3cc(Cl)cc(Br)c32)CC1)N1CCOCC1 [Example 11] |  | 250 nM | 127 to 128 °C | 
3 | O=C(O)C=C1CCC(=CC(=O)N2CCC([C@H]3c4ncc(Br)cc4CCc4cc(Cl)cc(Br)c43)CC2)CC1 [Example 14] | 55 nM | 5.2 nM | 161 to 169 °C | 
4 | O=C(O)C[C@H]1CC[C@@H](C(=O)N2CCC([C@H]3c4ncc(Br)cc4CCc4cc(Cl)cc(Br)c43)CC2)CC1 [Example 35] | 70 nM | 3.3 nM |  | 
5 | CONC(=O)Cc1ccc(CC(=O)N2CCC([C@H]3c4ncc(Br)cc4CCc4cc(Cl)cc(Br)c43)CC2)cc1 [Example 19] | 90 nM | 4.7 nM | 116 to 123 °C | 
6 | NC(=O)C1CCC(CC(=O)N2CCC(C3c4ncc(Br)cc4CCc4cc(Cl)cc(Br)c43)CC2)CC1 (stereo not drawn) [Example 23] | 18 nM | 4.6 nM | 145 to 152 °C | 
7 | O=C(O)C[C@H]1CC[C@H](C(=O)N2CCC([C@H]3c4ncc(Br)cc4CCc4cc(Cl)cc(Br)c43)CC2)CC1 [Example 36] | 500 nM | 10.2 nM |  | 
8 | NC(=O)[C@@H]1C[C@H]1C(=O)N1CCC([C@H]2c3ncc(Br)cc3CCc3cc(Cl)cc(Br)c32)CC1 [Example 29 (compound 54.0)] |  | 8.3 nM |  | 
9 | O=C(O)Cc1ccc(CC(=O)N2CCC([C@H]3c4ncc(Br)cc4CCc4cc(Cl)cc(Br)c43)CC2)cc1 [Example 3] | 380 nM | 1.6 nM | 186 to 189 °C | 
10 | O=C(Cc1ccc(CC(=O)N2CCC([C@H]3c4ncc(Br)cc4CCc4cc(Cl)cc(Br)c43)CC2)cc1)NCCO [Example 20] |  | > 140 nM | 94 to 100 °C | 
11 | O=C(O)CC1CCC(CC(=O)N2CCC([C@H]3c4ncc(Br)cc4CCc4cc(Cl)cc(Br)c43)CC2)CC1 (stereo partly drawn) [Example 13] | 10 nM | 1.5 nM |  | > 500 nM
12 | O=C(O)C1CCC(CC(=O)N2CCC([C@H]3c4ncc(Br)cc4CCc4cc(Cl)cc(Br)c43)CC2)CC1 (stereo partly drawn) [Example 12] | 10 nM | 1.9 nM |  | > 500 nM
13 | O=C(Cc1ccccc1C(=O)N1CCOCC1)N1CCC([C@H]2c3ncc(Br)cc3CCc3cc(Cl)cc(Br)c32)CC1 [Example 26] |  | 56 nM | 136 to 138 °C | 
14 | COC(=O)CNC(=O)Cc1cccc(CC(=O)N2CCC([C@H]3c4ncc(Br)cc4CCc4cc(Cl)cc(Br)c43)CC2)c1 [Example 17] | 410 nM | 9.5 nM | 86 to 90 °C | 
15 | CC(C)(C)OC(=O)C[C@H]1CC[C@H](C(=O)N2CCC([C@H]3c4ncc(Br)cc4CCc4cc(Cl)cc(Br)c43)CC2)CC1 [Example 10] |  | 91 nM | 98 to 102 °C | 
16 | O=C(O)Cc1cccc(CC(=O)N2CCC([C@H]3c4ncc(Br)cc4CCc4cc(Cl)cc(Br)c43)CC2)c1 [Example 4] | 400 nM | 4.1 nM | 205 °C (dec.) | 

Row | SMILES | IC50 (COS Cell) | IC50 [1] | melting point | IC50 (Human tumor cells)
17 | O=C(NO)c1ccccc1CC(=O)N1CCC([C@H]2c3ncc(Br)cc3CCc3cc(Cl)cc(Br)c32)CC1 [Example 27] |  | 53 nM | 156 to 157 °C | 
18 | COC(=O)Cc1ccc(CC(=O)N2CCC([C@H]3c4ncc(Br)cc4CCc4cc(Cl)cc(Br)c43)CC2)cc1 [Example 34] | 180 nM | 8.6 nM | 81 to 86 °C | 
19 | NC(=O)CC1CCC(CC(=O)N2CCC(C3c4ncc(Br)cc4CCc4cc(Cl)cc(Br)c43)CC2)CC1 (stereo not drawn) [Example 22] | 22 nM | 6.3 nM | 103 to 110 °C | 
20 | CC(C)(C)OC(=O)C[C@H]1CC[C@@H](C(=O)N2CCC([C@H]3c4ncc(Br)cc4CCc4cc(Cl)cc(Br)c43)CC2)CC1 [Example 9] |  | 44 nM | 98 to 102 °C | 
21 | COC(=O)CNC(=O)Cc1ccc(CC(=O)N2CCC([C@H]3c4ncc(Br)cc4CCc4cc(Cl)cc(Br)c43)CC2)cc1 [Example 18] | 450 nM | 5.3 nM | 94 to 97 °C | 
22 | O=C(O)[C@H]1CC[C@H](C(=O)N2CCC([C@H]3c4ncc(Br)cc4CCc4cc(Cl)cc(Br)c43)CC2)CC1 [Example 5] |  | 46 nM | 138 to 140 °C | 
23 | O=C(NCc1ccncc1)c1ccccc1CC(=O)N1CCC([C@H]2c3ncc(Br)cc3CCc3cc(Cl)cc(Br)c32)CC1 [Example 24] |  | 47 nM | 134 to 138 °C | 
24 | NC(=O)Cc1ccc(CC(=O)N2CCC([C@H]3c4ncc(Br)cc4CCc4cc(Cl)cc(Br)c43)CC2)cc1 [Example 15] | 100 nM | 3.6 nM |  | > 500 nM
25 | CC(C)(C)OC(=O)C=C1CCC(=CC(=O)N2CCC([C@H]3c4ncc(Br)cc4CCc4cc(Cl)cc(Br)c43)CC2)CC1 [Example 7] |  | 110 nM | 113 to 117 °C | 
26 | COC(=O)[C@H]1C[C@@H]1C(=O)N1CCC([C@H]2c3ncc(Br)cc3CCc3cc(Cl)cc(Br)c32)CC1 [30 (compound 55.1)] |  | 25 nM |  | 
27 | O=C(O)c1ccccc1CC(=O)N1CCC([C@H]2c3ncc(Br)cc3CCc3cc(Cl)cc(Br)c32)CC1 [Example 1] |  | 66 nM | 229 °C (dec.) | 
28 | COC(=O)[C@@H]1C[C@H]1C(=O)N1CCC([C@H]2c3ncc(Br)cc3CCc3cc(Cl)cc(Br)c32)CC1 [Example 29 (compound 54.1)] |  | 34 nM |  | 
29 | NC(=O)Cc1cccc(CC(=O)N2CCC([C@H]3c4ncc(Br)cc4CCc4cc(Cl)cc(Br)c43)CC2)c1 [Example 16] | 375 nM | 6.3 nM | 119 to 125 °C | 
30 | CC(C)(C)OC(=O)CC1CCC(CC(=O)N2CCC([C@H]3c4ncc(Br)cc4CCc4cc(Cl)cc(Br)c43)CC2)CC1 (stereo partly drawn) [Example 6] |  | 19 nM | 86 to 90 °C | 
31 | COC(=O)CNC(=O)c1ccccc1CC(=O)N1CCC([C@H]2c3ncc(Br)cc3CCc3cc(Cl)cc(Br)c32)CC1 [Example 25] |  | 36 nM | 116 to 118 °C | 
